The record followed here is US3974140A, “Ureidoacetamido-penicillins” (Bayer Aktiengesellschaft, priority 1970, dated 1976).

Some results are limits rather than exact numbers.

Assay [1] has as its system Staph. aureus 133. Description: Surviving mice after intraperitoneal infection and subcutaneous therapy. The assay is classed as in vivo, white mice, CF1 strain. As to conditions: 2 × 200 units/mouse s.c. Here is the method: The experiments on animals (see Table 3) were carried out with white mice of the CF1 strain. The infection took place intraperitoneally with the particular bacterium indicated.

For the next assay, the system named is Proteus vulg. 1017. Description: MIC, liquid medium test tube series dilution test. It counts as cell-based, Proteus vulgaris. The following applies: Proteus vulg. 1017, 24 hours, 37°C. The essentials: (§1)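 In this in vitro test, growth inhibition is judged by absence of turbidity across a dilution series in complete nutrient broth. Readings are made after 24 hours at 37°C, with values given in units/ml.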

Another assay concerns Proteus vulg. 3400. Nature of the assay: MIC, liquid medium test tube series dilution test. The following applies: Proteus vulg. 3400, 24 hours, 37°C. The assay is classed as cell-based, Proteus vulgaris. Put shortly: as §1
Another assay deals with Staph. aureus 1777 E. Description: MIC, liquid medium test tube series dilution test. The following applies: 24 hours, 37°C. The assay is classed as cell-based, Staphylococcus aureus. Put shortly: as §1
Assay [2] concerns Staph. aureus 133. Description: MIC, liquid medium test tube series dilution test. It counts as cell-based, Staphylococcus aureus. The following applies: Staph. aureus 133, 24 hours, 37°C. Put shortly: as §1
The next assay has as its system Psdm. aerug. Bonn. Nature of the assay: MIC, liquid medium test tube series dilution test. The assay is classed as cell-based, Pseudomonas aerug. As to conditions: 24 hours, 37°C. The essentials: as §1
The next assay has as its system Psdm. aerug. Walter. Nature of the assay: MIC, liquid medium test tube series dilution test. The assay is classed as cell-based, Pseudomonas aerug. As to conditions: 24 hours, 37°C. Put shortly:
as §1

A further assay has as its system Klebsiella 63. Description: MIC, liquid medium test tube series dilution test. It counts as cell-based. The following applies: Klebsiella 63, 24 hours, 37°C. The essentials:
as §1

The subject of another assay is E. coli 14. Description: MIC, liquid medium test tube series dilution test. It counts as cell-based. The following applies: E. coli 14, 24 hours, 37°C. The essentials:
as §1

In the next assay the test system is E. coli C 165. Description: MIC, liquid medium test tube series dilution test. The assay is classed as cell-based. The following applies: E. coli C 165, 24 hours, 37°C. The essentials:
as §1

The test system of a further assay is E. coli 183/58. Nature of the assay: MIC, liquid medium test tube series dilution test. The assay is classed as cell-based. The following applies: E. coli 183/58, 24 hours, 37°C. The essentials: as §1
Assay [3] concerns Streptoc. faec. ATCC 9790. Nature of the assay: MIC, liquid medium test tube series dilution test. The assay is classed as cell-based. As to conditions: Strep. faec. (Enterococcus) ATCC 9790, 24 hours, 37°C. The essentials: as §1
The test system of a further assay is E. coli A 261. Nature of the assay: MIC, liquid medium test tube series dilution test. The assay is classed as cell-based. The following applies: E. coli A 261, 24 hours, 37°C. The essentials: as §1
In the next assay the test system is Klebsiella K 10. Description: MIC, liquid medium test tube series dilution test. It counts as cell-based. The following applies: Klebsiella K 10, 24 hours, 37°C. Put shortly: as §1

For the molecule `CN(C(=O)N[C@@H](C(=O)N[C@@H]1C(=O)N2[C@@H]1SC(C)(C)[C@@H]2C(=O)O)c1ccccc1)C(=O)C1CC=CCC1` (single isomer, unassigned) [Example 65, Sodium D(-)-α-(3-(1,2,5,6)-tetrahydrobenzoyl-3-methyl-ureido)benzylpenicillin], the “Number of surviving mice” value came out at 90% with Staph. aureus 133 [1] (1 day), 80% in the assay on Staph. aureus 133 [1] (2 days), 70% in the assay with Staph. aureus 133 [1] (3 days) and 70% in the assay with Staph. aureus 133 [1] (5 days). Besides, the MIC against Proteus vulg. 1017 is listed as 3.12 units/ml; with Proteus vulg. 3400, 6.25 units/ml; with Staph. aureus 1777 E it was 50 units/ml; against Staph. aureus 133 [2], under 0.78 units/ml; in the assay on Psdm. aerug. Bonn, 12.5 units/ml; in the assay with Psdm. aerug. Walter it was 12.5 units/ml. For the same molecule, the MIC against Klebsiella 63 is given as 12.5 units/ml; against E. coli 14, under 0.78 units/ml; against E. coli C 165 it was 3.12 units/ml; with E. coli 183/58, 1.56 units/ml; in assay [3], 50 units/ml; against E. coli A 261, 400 units/ml.

Take `CC1(C)S[C@@H]2[C@H](NC(=O)[C@H](NC(=O)N3CCCCC3=O)c3ccccc3)C(=O)N2[C@H]1C(=O)O` [Example 134, Sodium D(-)-α-(1-piperidin-2-on-1-yl-carbonylamino)-benzylpenicillin]: the MIC stood at 12.5 units/ml against Proteus vulg. 1017; 50 units/ml with Proteus vulg. 3400; 200 units/ml in the assay on Staph. aureus 1777 E; 3.1 units/ml against Staph. aureus 133 [2]; 100 units/ml against Psdm. aerug. Bonn; 50 units/ml against Psdm. aerug. Walter. The MIC in the assay on Klebsiella 63 stood at 200 units/ml; against Klebsiella K 10, 50 units/ml; against E. coli 14, 3.1 units/ml; in the assay on E. coli C 165, 25 units/ml; against E. coli 183/58 it was 25 units/ml; in assay [3], 100 units/ml. Further, the MIC with E. coli A 261 is over 400 units/ml.

Take `CC(C)OC(=O)N(C)C(=O)N[C@@H](C(=O)N[C@@H]1C(=O)N2[C@@H]1SC(C)(C)[C@@H]2C(=O)O)c1ccccc1` [Example 11 C, Sodium D(-)-α-(3-isopropoxycarbonyl-3-methyl-ureido)-benzyl-penicillin]: the MIC came to 100 units/ml in the assay on Proteus vulg. 1017 (listed as 11 C); 100 units/ml in the assay with Proteus vulg. 3400 (listed as 11 C); 400 units/ml in the assay with Staph. aureus 1777 E; 1.6 units/ml with Staph. aureus 133 [2]; 400 units/ml in the assay on Psdm. aerug. Bonn (listed as 11 C); 50 units/ml against Psdm. aerug. Bonn (listed as (A) of Example 11). In addition, the MIC against Psdm. aerug. Walter (listed as 11 C) stood at 200 units/ml; against Psdm. aerug. Walter (listed as (A) of Example 11) it was 100 units/ml; in the assay on Klebsiella 63 (listed as 11 C), 100 units/ml; against Klebsiella K 10 (listed as 11 C), 50 units/ml; with E. coli 14 (listed as 11 C), 6.3 units/ml; against E. coli 14 (listed as (A) of Example 11) it was 6.25 units/ml. For the same molecule, the MIC against E. coli C 165 (listed as 11 C) was 50 units/ml; in the assay with E. coli C 165 (listed as (A) of Example 11) it was 50 units/ml; in the assay with E. coli 183/58 (listed as 11 C), 12.5 units/ml; against E. coli 183/58 (listed as (A) of Example 11) it was 12.5 units/ml; in assay [3] it was 200 units/ml; with E. coli A 261, over 400 units/ml.

As to `COC(=O)N(C)C(=O)N[C@@H](C(=O)N[C@@H]1C(=O)N2[C@@H]1SC(C)(C)[C@@H]2C(=O)O)c1ccccc1` [Example 10 B], the MIC is 200 units/ml in the assay on Proteus vulg. 1017 (listed as 10 B); 200 units/ml against Proteus vulg. 3400 (listed as 10 B); 400 units/ml with Staph. aureus 1777 E; 1.6 units/ml in the assay with Staph. aureus 133 [2] (listed as 10 B); 1.56 units/ml in the assay on Staph. aureus 133 [2] (listed as (A) of Example 10); 200 units/ml against Psdm. aerug. Bonn (listed as 10 B). The MIC against Psdm. aerug. Bonn (listed as (A) of Example 10) was 50 units/ml; in the assay with Psdm. aerug. Walter (listed as 10 B), 200 units/ml; against Psdm. aerug. Walter (listed as (A) of Example 10), 50 units/ml; against Klebsiella 63 (listed as 10 B) it was 50 units/ml; against Klebsiella 63 (listed as (A) of Example 10) it was 200 units/ml; with Klebsiella K 10 (listed as 10 B), 50 units/ml. In addition, the MIC in the assay on Klebsiella K 10 (listed as (A) of Example 10) is on record as 200 units/ml; in the assay on E. coli 14 (listed as 10 B) it was 12.5 units/ml; against E. coli 14 (listed as (A) of Example 10), 12.5 units/ml; with E. coli C 165 (listed as 10 B), 50 units/ml; in the assay on E. coli 183/58 (listed as 10 B) it was 50 units/ml; in the assay with E. coli 183/58 (listed as (A) of Example 10), 50 units/ml. For the same molecule, the MIC in assay [3] (listed as 10 B) was 100 units/ml; in the assay with E. coli A 261 it was over 400 units/ml.

For the molecule `Cc1ccc(C(NC(=O)N2CCNC2=O)C(=O)N[C@@H]2C(=O)N3[C@@H]2SC(C)(C)[C@@H]3C(=O)O)cc1` (stereo partly drawn) [Example 46, Sodium α-[(imidazolidin-2-on-1-yl)-carbonylamino]-p-methylbenzylpenicillin], the MIC against Proteus vulg. 1017 is 25 units/ml; against Proteus vulg. 3400, 50 units/ml; in the assay on Staph. aureus 1777 E it was 200 units/ml; against Staph. aureus 133 [2], 1,56 units/ml; with Psdm. aerug. Bonn, 25 units/ml; with Psdm. aerug. Walter it was 25 units/ml. For the same molecule, the MIC against Klebsiella 63 is reported as 50 units/ml; with Klebsiella K 10 it was 100 units/ml; with E. coli 14, 6,25 units/ml; against E. coli C 165, 50 units/ml; in the assay on E. coli 183/58, 12,5 units/ml; in assay [3] it was 50 units/ml. In the assay on E. coli A 261, the MIC was over 400 units/ml.

As for `COC(=O)N(C)C(=O)N[C@H](C(=O)N[C@@H]1C(=O)N2[C@@H]1SC(C)(C)[C@@H]2C(=O)O)c1c(Cl)cccc1Cl` [Example 8, Sodium L(+)-α-(3-methoxycarbonyl-3-methyl-ureido)-2,6-dichlorobenzylpenicillin], the MIC in the assay on Proteus vulg. 1017 was over 500 units/ml; in the assay with Proteus vulg. 3400, over 500 units/ml; with Staph. aureus 1777 E, 100-500 units/ml; in the assay on Staph. aureus 133 [2], 4-20 units/ml; against Psdm. aerug. Bonn, over 500 units/ml; against Psdm. aerug. Walter, over 500 units/ml. For the same molecule, the MIC (against Klebsiella 63; in the assay on Klebsiella K 10; against E. coli 14; with E. coli C 165; in the assay on E. coli 183/58; in assay [3]) was over 500 units/ml throughout. Further, in the assay with E. coli A 261, the MIC is given as over 500 units/ml.
